The source made the active and inactive calls. No cut-off for these calls is given here.
How the values were obtained:
[1] = tested on: SK-OV-3; assay: Induction of cell cycle arrest in human SK-OV-3 cells assessed as increase in G2/M phase cells at 2.5 nM incubated for 24 hrs PI staining based flow cytometric analysis (reference value: 24.6 +/- 2.0%); type: functional
[2] = tested on: SK-OV-3; assay: Induction of apoptosis in human SK-OV-3 cells assessed as downregulation of cleaved-PARP expression at 100 nM incubated for 24 hrs by Western blotting analysis; type: functional, cell-based
[3] = tested on: SK-OV-3; assay: Inhibition of cell migration in human SK-OV-3 cells assessed as wound closure ratio at 3.125 nM incubated for 24 hrs by wound healing assay (reference value: 100%); type: functional; parameters: scale not given: the % may be the effect or the level left
[4] = tested on: SK-OV-3; assay: Inhibition of cell migration in human SK-OV-3 cells assessed as decrease in cell density incubated for 24 hrs by wound healing assay; type: functional, cell-based; conditions: dose 3.125-50 nM
[5] = tested on: SK-OV-3; assay: Inhibition of cell migration in human SK-OV-3 cells incubated for 24 hrs by Transwell assay; type: functional, cell-based; conditions: dose 10-20 nM
[6] = tested on: MCF7; assay: Inhibition of cell migration in human MCF7 cells assessed as area of migrated cells at 6.25 nM incubated for 24 hrs by crystal violet staining based inverted microscopic analysis (reference value: 18.5 +/- 0.3 mm^3); type: functional
[7] = Toxicity in female BALB/c nude mouse xenografted with human SK-OV-3 cells assessed as pathological changes in lung at 5 to 10 mg/kg, […] via tail vein once every 2 to 3 days by H and E staining based analysis; type: organism-based; conditions: in vivo, dose lower 5 mg/kg, time lower 2 day, dose upper 10 mg/kg, time upper 3 day
[8] = Toxicity in female BALB/c nude mouse xenografted with human SK-OV-3 cells assessed as pathological changes in kidney at 5 to 10 mg/kg, […] via tail vein once every 2 to 3 days by H and E staining based analysis; type: organism-based; conditions: in vivo, dose lower 5 mg/kg, time lower 2 day, dose upper 10 mg/kg, time upper 3 day

For `CNc1nc(N2CCCc3cc(OC)ccc32)c2cc(F)ccc2n1`, the Activity [1] was 25.3%, the Activity [2] was “inactive” and the Activity [3] was 104.5%. For the same molecule, the inhibition [4] was “Dose-dependent-effect”, the inhibition [5] was “Dose-dependent-effect” and the Activity [6] was 16.4 mm3. For the same molecule, the Activity [7] was “Non-toxic” and the Activity [8] was “Non-toxic”.

— ChEMBL document CHEMBL6074686 (Eur J Med Chem, 2025)
